SMILES strings stand for the structures.

Test [1] has as its system Leishmania donovani. Put plainly: Antileishmanial activity against axenic amastigotes of Leishmania donovani MHOM/SD/1962/1S-Cl2d after 24 hrs by alamar Blue viability assay. It counts as functional, organism-based. On the technique in general: Alamar Blue is a resazurin reagent that responds to reducing activity.
For test [2], the system named is Leishmania donovani. Put plainly: Inhibition of Leishmania donovani CRK3/CYC6 activity expressed in Escherichia coli using 15 uM ATP at 30 uM.
Test [3] is described as follows: Inhibition of Leishmania donovani CRK3/CYC6 activity expressed in Escherichia coli using 15 uM ATP.
The test system of test [4] is Leishmania donovani. Put plainly: Antileishmanial activity against axenic amastigotes of Leishmania donovani MHOM/SD/1962/1S-Cl2d at 30 uM after 24 hrs by alamar Blue viability assay. It counts as functional.

Turning to `COc1ccc(CNc2ncnc3c(C(C)C)n[nH]c23)cc1OC`, in the test with Leishmania donovani [1], the EC50 (commonly the concentration that produces a half-maximal response) was > 100 µM. Also, the inhibition – broadly, the relative decrease from the control value, in per cent – with Leishmania donovani [2] came out at 19.9%. For the same compound, the IC50 (in general, the concentration that gives 50% inhibition) in test [3] was > 100 µM. Also, the inhibition at 30 µM with Leishmania donovani [4] was found to be 8.4%.
For `CC(C)n1cnc2c(NC3CCCCC3N)ncnc21` (stereo unspecified), in the test with Leishmania donovani [2], the inhibition was -5.4%. Further, in test [3], the IC50 is > 100 µM. Also, the inhibition at 30 µM in the test on Leishmania donovani [4] was found to be 4.5%.
For `CC(C)n1cnc2c(NC34CC5CC(CC(C5)C3)C4)ncnc21` the same measures were 66.1%, 12.2 µM and 72%.
For `CC(C)n1cnc2c(NCc3cccc(O)c3)ncnc21`, the inhibition in the test with Leishmania donovani [2] was 8.8%. In addition, the IC50 in test [3] is > 100 µM. For the same compound, the inhibition at 30 µM with Leishmania donovani [4] is 6.5%.
In the test on Leishmania donovani [1], `CC(C)=CCNc1ncnc2c(C(C)C)n[nH]c12` gave an EC50 of 85 µM. The inhibition in the test on Leishmania donovani [2] is 32.5%. In test [3], this compound gave an IC50 of 57.2 µM. Moreover, the inhibition at 30 µM in the test on Leishmania donovani [4] was determined as 45.5%.
Take `CCCCCNc1ncnc2c1ncn2C(C)C`: the inhibition in the test on Leishmania donovani [2] stood at 14.8%. Moreover, the IC50 in test [3] is > 100 µM. The inhibition at 30 µM in the test with Leishmania donovani [4] came to 22.6%.
On the same counts, the results for `COc1ccc(CNc2ncnc3c2ncn3C(C)C)cc1O` are 11.2%, > 100 µM and 8.8%.
As to `CC(C)c1n[nH]c2c(NCc3cccc(O)c3)ncnc12`, in the test on Leishmania donovani [1], the EC50 is > 100 µM. In addition, in the test with Leishmania donovani [2], the inhibition was found to be 35.8%. Besides, the IC50 in test [3] turned out to be 83.2 µM. Further, the inhibition at 30 µM in the test with Leishmania donovani [4] was determined as 25.4%.
`CC(C)n1cnc2c(Nc3ccc(F)cc3)ncnc21`: the inhibition in the test with Leishmania donovani [2] stood at 53.3%. Besides, the midpoint of inhibition in test [3], the IC50, lay at 22.8 µM. Besides, the inhibition at 30 µM in the test with Leishmania donovani [4] turned out to be 21.5%.
On to `CCCCCNc1ncnc2c(C(C)C)n[nH]c12`, for which, in the test with Leishmania donovani [1], a half-maximal response (EC50) required 54.7 µM. For the same compound, in the test with Leishmania donovani [2], the inhibition stood at 46.5%. Further, the IC50 in test [3] is > 100 µM. In addition, the inhibition at 30 µM with Leishmania donovani [4] is 27.3%.
`COc1ccc(CNc2ncnc3c2ncn3C(C)C)cc1OC`: the inhibition with Leishmania donovani [2] is -2.3%. Moreover, the IC50 in test [3] was > 100 µM. Further, in the test with Leishmania donovani [4], the inhibition at 30 µM came out at 1.9%.
Consider `CC(C)c1n[nH]c2c(Nc3cccc(F)c3)ncnc12`, for which the midpoint of the response in the test on Leishmania donovani [1], the EC50, lay at 23.2 µM. The inhibition in the test with Leishmania donovani [2] was found to be 70.4%. The same compound yielded an IC50 in test [3] of 14.6 µM. Further, in the test with Leishmania donovani [4], the inhibition at 30 µM turned out to be 66.6%.
On the same counts, the results for `COc1ccc(CNc2ncnc3c(C(C)C)n[nH]c23)cc1O` are 94 µM, 46.8%, 28.2 µM and 34.3%.
`COc1cc(CNc2ncnc3c(C(C)C)n[nH]c23)ccc1O`: the EC50 in the test with Leishmania donovani [1] was > 100 µM. Also, in the test on Leishmania donovani [2], the inhibition stood at 41%. For the same compound, in test [3], the IC50 was 100 µM. In the test with Leishmania donovani [4], the inhibition at 30 µM is 10.4%.
Take `CC(C)n1cnc2c(Nc3cccc(F)c3)ncnc21`: the inhibition in the test with Leishmania donovani [2] turned out to be 30.4%. The same compound registered an IC50 in test [3] of 49.9 µM. In the test on Leishmania donovani [4], the inhibition at 30 µM came to 16.5%.
For `CC(C)n1cnc2c(NCc3ccco3)ncnc21` the same measures were 3.5%, > 100 µM and 14.5%.
For `COc1cc(CNc2ncnc3c2ncn3C(C)C)ccc1O` the same measures were 11.9%, > 100 µM and 9.5%.
In the test on Leishmania donovani [1], `CC(C)c1n[nH]c2c(Nc3ccc(F)cc3)ncnc12` showed an EC50 of 11.6 µM. In the test with Leishmania donovani [2], the inhibition worked out at 78.8%. This compound also came in with an IC50 in test [3] of 6.8 µM. Moreover, in the test with Leishmania donovani [4], the inhibition at 30 µM amounted to 75.8%.
In the case of `CC(C)n1cnc2c(Nc3cccc(Cl)c3)ncnc21`, the inhibition in the test on Leishmania donovani [2] worked out at 22.3%. Also, the IC50 in test [3] is > 100 µM. Further, in the test with Leishmania donovani [4], the inhibition at 30 µM was determined as 35.1%.
For `CC(C)n1cnc2c(NCc3ccccc3N)ncnc21` the same measures were 11%, > 100 µM and 6.6%.
Regarding `CC(C)n1cnc2c(NCc3ccccc3)ncnc21`, the inhibition in the test on Leishmania donovani [2] came to 18.5%. Moreover, the IC50 in test [3] was > 100 µM. Moreover, the inhibition at 30 µM in the test on Leishmania donovani [4] turned out to be 19.9%.
For the compound `COc1ccc(CNc2ncnc3c(C(C)C)n[nH]c23)cc1`, the EC50 with Leishmania donovani [1] worked out at 83 µM. Also, in the test with Leishmania donovani [2], the inhibition was found to be 36%. The compound further had an IC50 in test [3] of 75.5 µM. The inhibition at 30 µM in the test on Leishmania donovani [4] is 31.5%.
On to `COc1ccc(CNc2ncnc3c2ncn3C(C)C)cc1`, for which the inhibition in the test on Leishmania donovani [2] is -6.9%. Further, the IC50 in test [3] is > 100 µM. For the same compound, the inhibition at 30 µM in the test on Leishmania donovani [4] is 15.1%.
Compound `CC(C)c1n[nH]c2c(NCc3ccccc3)ncnc12` yielded an EC50 in the test on Leishmania donovani [1] of 68.6 µM. Further, the inhibition in the test with Leishmania donovani [2] turned out to be 24.5%. Also, the midpoint of inhibition in test [3], the IC50, lay at 54.2 µM. The inhibition at 30 µM with Leishmania donovani [4] was 29.6%.
As to `CC(C)c1n[nH]c2c(NC34CC5CC(CC(C5)C3)C4)ncnc12`, the midpoint of the response in the test with Leishmania donovani [1], the EC50, lay at 1.22 µM. In the test with Leishmania donovani [2], the inhibition came out at 93.8%. In addition, in test [3], the IC50 turned out to be 1.82 µM. Besides, in the test on Leishmania donovani [4], the inhibition at 30 µM amounted to 73.2%.
On the same counts, the results for `CC(C)c1n[nH]c2c(NC3CCC(N)CC3)ncnc12` (stereo unspecified) are > 100 µM, 35%, > 100 µM and 3.3%.
The compound `CC(C)c1n[nH]c2c(Nc3ccccc3Br)ncnc12` returned an EC50 in the test with Leishmania donovani [1] of 18.7 µM. In addition, the inhibition in the test with Leishmania donovani [2] came to 35.6%. The midpoint of inhibition in test [3], the IC50, lay at 16.1 µM. Besides, the inhibition at 30 µM in the test with Leishmania donovani [4] was 40.7%.
On the same counts, the results for `CC(C)c1n[nH]c2c(NCc3ccco3)ncnc12` are > 100 µM, 28.5%, > 100 µM and 16.6%.
With `CC(C)=CCNc1ncnc2c1ncn2C(C)C`, the inhibition with Leishmania donovani [2] was 3.2%. Further, the IC50 in test [3] is > 100 µM. The inhibition at 30 µM with Leishmania donovani [4] turned out to be 0.04%.
For `CC(C)n1cnc2c(NCc3ccccc3O)ncnc21` the same measures were -2.8%, > 100 µM and 11.7%.
Turning to `CC(C)n1cnc2c(Nc3ccccc3Br)ncnc21`, in the test on Leishmania donovani [2], the inhibition came out at 1.8%. Further, in test [3], the IC50 was > 100 µM. In addition, the inhibition at 30 µM in the test on Leishmania donovani [4] was determined as 26.2%.
For `CC(C)n1cnc2c(NC3CCC(N)CC3)ncnc21` (stereo unspecified) the same measures were 26.4%, > 100 µM and 1%.
`CC(C)c1n[nH]c2c(Nc3cccc(Cl)c3)ncnc12` showed an EC50 in the test with Leishmania donovani [1] of 12.4 µM. The inhibition in the test with Leishmania donovani [2] worked out at 81.3%. Moreover, 9.86 µM corresponded to half-maximal inhibition in test [3] (IC50). Also, in the test with Leishmania donovani [4], the inhibition at 30 µM came to 73.3%.
`CC(C)c1n[nH]c2c(NCc3ccccc3N)ncnc12`: the EC50 in the test on Leishmania donovani [1] was > 100 µM. The inhibition with Leishmania donovani [2] turned out to be 42.3%. This compound also yielded an IC50 in test [3] of 58.6 µM. Further, the inhibition at 30 µM with Leishmania donovani [4] stood at 41.3%.
Take `CC(C)c1n[nH]c2c(NCc3ccccc3O)ncnc12`: a half-maximal response in the test on Leishmania donovani [1] (EC50) required 35.7 µM. In the test on Leishmania donovani [2], the inhibition worked out at 68%. Further, inhibition in test [3] was half-maximal at 11.9 µM (IC50). The inhibition at 30 µM in the test on Leishmania donovani [4] was found to be 87.4%.
On the same counts, the results for `CC(C)c1n[nH]c2c(NC3CCCCC3N)ncnc12` (stereo unspecified) are > 100 µM, 2.4%, > 100 µM and 15.8%.

Source of the values: ChEMBL document CHEMBL1800011, “Anti-leishmanial activity of disubstituted purines and related pyrazolo[4,3-d]pyrimidines” (Bioorg Med Chem Lett, 2011).
